Experimental findings from patent publication US20060241108A1, “Substituted phenoxazines and acridones as inhibitors of AKT” (St. Jude Children's Research Hospital, priority 2005, published 2006) are described below.

The subject of one test is AKT. In words: Inhibition of IGF-I stimulated AKT phosphorylation (Ser473) in Rh1 cells, Western blot. It counts as cell-based, human. The note with it: for Inhibition (phosphorylation of AKT at Ser 473): 5 μM, 1 hour, serum starved Rh1 cells, IGF-I 10 ng/ml 10 minutes, average of two experiments; for inhibition of cellular AKT activation: at the concentrations examined in this assay (1-5 μM). The protocol:
Cell lines and growth conditions. The human cell lines Rh1, Rh18, and Rh30 (ATCC Deposit # CRL 2061) have been described, e.g., by Hazelton et al. Cancer Res 1987;47:4501-4507 and Hosoi et al. Cancer Res. 1999;59:886-894. Rh1, Rh18 and Rh30 cells can each be grown in antibiotic free RPMI-1640 medium (available from BioWhittaker, Walkersville, Md.), supplemented with 10% fetal bovine serum (available from HyClone Laboratories, Logan, Utah) and 2 mM L-glutamine (available from BioWhittaker, Walkersville, Md.) at 37° C. in an atmosphere of 5% CO2. For serum free experiments, cells can be cultured in modified N2E (MN2E) medium (DMEM/F-12, 1:1 mixture) (Sigma, St. Louis, Mo.) supplemented with 1 μg/ml human holo transferrin, 30 nM sodium selenite, 20 nM progesterone, 100 μM putrescine, 30 nM vitamin E phosphate, and 50 μM ethanolamine. Cells in MN2E medium containing 5 μg/ml bovine fibronectin (available from Sigma, St. Louis, Mo.) are preferably plated, and allowed to attach overnight at 37° C. in a humidified, 5% CO2 atmosphere.
Cellular screening for inhibitors. Rh1, Rh18 and Rh30 cells can each be seeded at a density of 4×10^6/10-cm plate in serum-free medium for overnight attachment. The cells can then be exposed to 0.1% DMSO or to a test compound (for example, a phenoxazine or acridone compound) for one hour, then stimulated with Insulin-like growth factor-I (IGF-I) (10 ng/ml) for 10 minutes.
Western blot analysis. Cells are rapidly washed with ice-cold phosphate-buffered saline (PBS), placed on ice, and lysed in mammalian protein extraction reagent (M-PER; available from Pierce, Rockford, Ill.) containing one Complete™ mini protease inhibitor tablet (available from Boehringer Mannheim, Mannheim, Germany), 1 mM phenylmethylsulfonyl fluoride, 1 mM Na3VO4 and 1 mM NaF. Cellular debris is pelleted by centrifugation at 17,500×g for 10 minutes at 4° C. The protein concentration of the supernatants is measured by the bicinchoninic acid assay (e.g., using the BCA™ Protein Assay Kit, Pierce, Rockford, Ill., catalog number 23225 or 23227) using bovine serum albumin as the standard.
For the analysis of AKT, ERK-1/2, mTOR, p70S6 kinase, ribosomal protein S6 (rpS6 or S6), and glycogen synthase kinase 3 (GSK-3), equivalent amounts of protein can be separated on a 12% SDS-polyacrylamide gel (available from BioRad, Hercules, Calif.) by electrophoresis and subsequently transferred to a nitrocellulose membrane (also available from BioRad). After a 1 hour incubation in 1×TBS containing 0.05% Tween 20 and 5% blocking reagent (skim milk) (available from Upstate Biotechnology, Lake Placid, N.Y.) at room temperature, the wet nitrocellulose membranes are incubated with appropriate antibodies (available from Cell Signaling Technology, Beverly, Mass.): rabbit polyclonal antiserum specific for the phosphorylated Ser473 or Thr308 of AKT (dilution 1:1000); rabbit polyclonal antiserum specific for phosphorylated Thr202/Tyr204 of ERK-1/2 (dilution 1:1000); rabbit polyclonal antiserum specific for phosphorylated Ser2448 or Ser2481 of mTOR (dilution 1:1000); rabbit polyclonal antiserum specific for phosphorylated Thr389 of p70S6 kinase (dilution 1:4000); rabbit polyclonal antiserum specific for phosphorylated Ser235/236 of rpS6 (dilution 1:1000); or rabbit polyclonal antiserum specific for phosphorylated Ser21/9 of GSK-3α/β (dilution 1:1000). Horseradish peroxidase-conjugated goat anti-rabbit IgG antibody (dilution 1:10,000) can be used as the secondary antibody. Immunoreactive protein can be visualized using Renaissance chemiluminescence reagent (available from Life Science Products Inc., Boston, Mass.).
For these assays, Rh1 cells are seeded in serum-free medium for overnight attachment. The serum starved Rh1 cells are then exposed to 1-5 μM of a compound in Table I for 1 hour before stimulating with IGF-I (10 ng/ml) for 10 minutes. […]
On the technique in general: In western blotting, separated proteins are transferred to a membrane and probed.

For test [1], the system named is Rh1, Rh18 and/or Rh30 cells. Description: Determination of apoptosis, cell line not specified for the result. The format is cell-based, human. The text has this:
Determination of apoptosis.
Similar experiments can be performed using compounds that are relatively poor inhibitors of AKT in vitro but, preferably, are chemically similar to the phenoxazine or other compounds tested that are effective inhibitors of AKT. For example, the apoptosis of cells in response to the phenoxazine compound 12B or 20B, which are relatively poor inhibitors of AKT in vitro, can be compared to apoptosis of cells in response to the chemically similar compounds 10B and/or 15B, which are effective AKT inhibitors. In this way, a skilled practitioner can evaluate whether apoptosis observed in response to an effective AKT inhibitor (e.g., apoptosis observed in response to compound 10B or 15B) is due to a general toxic effect rather than AKT inhibition.

With “10-(3′-N-piperidinopropyl)-2-chlorophenoxazine [Compound 6B]”, in the test on AKT, the “Inhibition (phosphorylation of AKT at Ser 473)” value is given as “++ (++ ≈ 50% inhibition)”.

Consider `FC(F)(F)c1ccc2c(c1)N(CCCN1CCOCC1)c1ccccc1O2` [Compound 5C, 10-(3′-N-morpholinopropyl)-2-trifluoromethylphenoxazine], for which, in the test on AKT, the “Inhibition (phosphorylation of AKT at Ser 473)” value was “−−− (−−− <25% inhibition)” and the “inhibition of cellular AKT activation” value is “minimal inhibition”.

For the compound `OCCN(CCO)CCCN1c2ccccc2Oc2ccc(Cl)cc21` [Compound 4B, 10-[3′-[N-bis(hydroxyethyl)amino]propyl]-2-chlorophenoxazine], the “Inhibition (phosphorylation of AKT at Ser 473)” value in the test on AKT is reported as “++ (++ ≈ 50% inhibition)”.

Take `OCCN(CCO)CCCCN1c2ccccc2Oc2ccc(C(F)(F)F)cc21` [Compound 11C, 10-[4′-[N-bis(hydroxyethyl)amino]butyl]-2-trifluoromethyl phenoxazine]: in the test on AKT, the “Inhibition (phosphorylation of AKT at Ser 473)” value is “+++ (+++ ≈ 75% inhibition)” and the “inhibition of cellular AKT activation” value is reported as “minimal inhibition”.

Consider `O=C(CCl)N1c2ccccc2Oc2ccc(Cl)cc21` [Compound 16B, 10-(chloroacetyl)-2-chlorophenoxazine], for which the “Inhibition (phosphorylation of AKT at Ser 473)” value in the test with AKT is “−−− (−−− <25% inhibition)”.

With `CCN(CC)CC(=O)N1c2ccccc2Oc2ccc(Cl)cc21` [Compound 17B, 10-[(N-diethylamino)acetyl]-2-chlorophenoxazine], the “Inhibition (phosphorylation of AKT at Ser 473)” value in the test with AKT is on record as “−−− (−−− <25% inhibition)”.

Regarding `ClCCCN1c2ccccc2Oc2ccc(Cl)cc21` [Compound 2B, 10-(3′-chloropropyl)-2-chlorophenoxazine], in the test with AKT, the “Inhibition (phosphorylation of AKT at Ser 473)” value was “−−− (−−− <25% inhibition)”.

For `Clc1ccc2c(c1)Nc1ccccc1O2` [Compound 1B, 2-chlorophenoxazine], in the test on AKT, the “Inhibition (phosphorylation of AKT at Ser 473)” value is “+ (+ ≈ 25% inhibition)”.

With `Clc1ccc2c(c1)N(CCCN1CCOCC1)c1ccccc1O2` [Compound 5B, 10-(3′-N-morpholinopropyl)-2-chlorophenoxazine], in the test on AKT, the “Inhibition (phosphorylation of AKT at Ser 473)” value is listed as “−−− (−−− <25% inhibition)”.

For `OCCN(CCO)CCCCN1c2ccccc2Oc2ccc(Cl)cc21` [Compound 11B, 10-[4′-[N-bis(hydroxyethyl)amino]butyl]-2-chlorophenoxazine], the “Inhibition (phosphorylation of AKT at Ser 473)” value in the test on AKT is “+++ (+++ ≈ 75% inhibition)”. In addition, the “induction of apoptosis” value in test [1] is given as “significant increase in the proportion of apoptotic cells”.

As to `c1ccc2c(c1)Oc1ccccc1N2CCCN1CCCC1` [Compound 8A, 10-(3′-N-pyrrolidinopropyl)-phenoxazine], in the test with AKT, the “Inhibition (phosphorylation of AKT at Ser 473)” value is reported as “++ (++ ≈ 50% inhibition)” and the “inhibition of cellular AKT activation” value is “minimal inhibition”.

Take “10-(4′-N-piperidinobutyl)-2-trifluoromethylphenoxazine [Compound 13C]”: in the test with AKT, the “Inhibition (phosphorylation of AKT at Ser 473)” value is given as “+++ (+++ ≈ 75% inhibition)” and the “inhibition of cellular AKT activation” value is “minimal inhibition”.

For “10-(4′-N-pyrrolidinobutyl)-phenoxazine [Compound 14A]”, in the test with AKT, the “Inhibition (phosphorylation of AKT at Ser 473)” value is reported as “+++ (+++ ≈ 75% inhibition)” and the “inhibition of cellular AKT activation” value is “minimal inhibition”.

Turning to `Clc1ccc2c(c1)N(CCCCN1CCOCC1)c1ccccc1O2` [Compound 12B, 10-(4′-N-morpholinobutyl)-2-chlorophenoxazine], the “Inhibition (phosphorylation of AKT at Ser 473)” value in the test with AKT was “−−− (−−− <25% inhibition)”. Also, the “induction of apoptosis” value in test [1] is listed as “neither the compound 12B or 20B”.

Consider `ClCCCCN1c2ccccc2Oc2ccc(Cl)cc21` [Compound 9B, 10-(4′-chlorobutyl)-2-chlorophenoxazine], for which, in the test on AKT, the “Inhibition (phosphorylation of AKT at Ser 473)” value was “−−− (−−− <25% inhibition)”.

Consider `OCCN(CCO)CCCN1c2ccccc2Oc2ccccc21` [Compound 4A, 10-[3′-[N-bis(hydroxyethyl)amino]propyl]phenoxazine], for which, in the test on AKT, the “Inhibition (phosphorylation of AKT at Ser 473)” value is reported as “++ (++ ≈ 50% inhibition)” and the “inhibition of cellular AKT activation” value is reported as “minimal inhibition”.

In the case of “10-[4′-[(β-hydroxyethyl piperazino]butyl]-phenoxazine [Compound 15A]”, in the test on AKT, the “Inhibition (phosphorylation of AKT at Ser 473)” value is “+++ (+++ ≈ 75% inhibition)” and the “inhibition of cellular AKT activation” value is listed as “minimal inhibition”.

Regarding “10-(4′-N-piperidinobutyl)-2-chlorophenoxazine [Compound 13B]”, the “Inhibition (phosphorylation of AKT at Ser 473)” value with AKT is “+++ (+++ ≈ 75% inhibition)”. Further, the “induction of apoptosis” value in test [1] is “significant increase in the proportion of apoptotic cells”.

Regarding `c1ccc(CNCCCN2c3ccccc3Oc3ccccc32)cc1` [Compound 22A, 10-(3′-N-benzylaminopropyl)-phenoxazine], in the test on AKT, the “Inhibition (phosphorylation of AKT at Ser 473)” value is given as “+++ (+++ ≈ 75% inhibition)” and the “inhibition of cellular AKT activation” value was “minimal inhibition”.

For the compound `O=C(CN1CCCCC1)N1c2ccccc2Oc2ccc(Cl)cc21` [Compound 19B, 10-(N-piperidinoacetyl)-2-chlorophenoxazine], the “Inhibition (phosphorylation of AKT at Ser 473)” value with AKT was “−−− (−−− <25% inhibition)”.

For “10-[[(β-hydroxyethyl) piperazino]acetyl]-2-chlorophenoxazine [Compound 21B]”, the “Inhibition (phosphorylation of AKT at Ser 473)” value in the test with AKT is listed as “−−− (−−− <25% inhibition)”.

`O=C(CN1CCOCC1)N1c2ccccc2Oc2ccc(Cl)cc21` [Compound 18B, 10-(N-morpholinoacetyl)-2-chlorophenoxazine]: the “Inhibition (phosphorylation of AKT at Ser 473)” value in the test on AKT is listed as “−−− (−−− <25% inhibition)”.

Turning to `CCN(CC)CCCN1c2ccccc2Oc2ccc(Cl)cc21` [Compound 3B, 10-[3′-(N-diethylamino)-propyl]-2-chlorophenoxazine], the “Inhibition (phosphorylation of AKT at Ser 473)” value with AKT is recorded as “++ (++ ≈ 50% inhibition)”.

As to “10-(3′-N-pyrrolidinopropyl)-2-chlorophenoxazine [Compound 7B]”, the “Inhibition (phosphorylation of AKT at Ser 473)” value with AKT was “+++ (+++ ≈ 75% inhibition)”.

Regarding `OCCN(CCO)CCCCN1c2ccccc2Oc2ccccc21` [Compound 11A, 10-[4′-[N-bis(hydroxyethyl)amino]-butyl]phenoxazine], in the test on AKT, the “Inhibition (phosphorylation of AKT at Ser 473)” value was “+++ (+++ ≈ 75% inhibition)” and the “inhibition of cellular AKT activation” value is listed as “minimal inhibition”.

For “10-(4′-N-pyrrolidinobutyl)-2-chlorophenoxazine [Compound 14B]”, the “Inhibition (phosphorylation of AKT at Ser 473)” value with AKT is “+++ (+++ ≈ 75% inhibition)”. The “induction of apoptosis” value in test [1] is reported as “significant increase in the proportion of apoptotic cells”.
